Among the test systems are HT-29; HOP-62; RXF 393; SK-MEL-2; NCI-H23; Malme-3M; U-251; UACC-257; OVCAR-4; NCI/ADR-RES; ACHN; CCRF-CEM; Hs-578T; SR; MDA-MB-435; NCI-H522; BT-549; HOP-92; HCC 2998.
Common to all, as to assay: growth of human tumour cells (NCI), 48 h

Here are results for 11 compounds from ChEMBL document CHEMBL1201862, “PubChem BioAssay data set” (2004).

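Compound exposure: 48 hours, 5 concentrations, 96-well plates. GI50 marks 50% less growth.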 Active and inactive are the calls of the source. Cut-off read from the data, not from the text of the source: active = GI50 up to about 1.1 µM and inactive = higher.

Take `Cc1cc2c(O)nc(N)nc2nc1C`: the GI50 in the assay with HT-29, in the assay with HOP-62, with RXF 393, with SK-MEL-2, in the assay with NCI-H23 and with Malme-3M was > 100 µM (inactive) throughout. Also, the GI50 in the assay on U-251, in the assay on UACC-257, with OVCAR-4, in the assay with NCI/ADR-RES, in the assay with ACHN and in the assay on CCRF-CEM was > 100 µM (inactive) each time. Moreover, the GI50 in the assay with Hs-578T, with SR, in the assay with MDA-MB-435, with NCI-H522, in the assay with BT-549 and with HOP-92 was > 100 µM (inactive) each time.
In the case of `CC(C)(C)C1CCC2c3c([nH]c4ccccc34)C3C(=O)N(c4ccc5c(c4)C(=O)c4ccccc4C5=O)C(=O)C3C2C1` (stereo not drawn), the GI50 with HT-29, in the assay with HOP-62, in the assay on RXF 393, in the assay with SK-MEL-2, in the assay on NCI-H23 and in the assay on Malme-3M was > 100 µM (inactive) throughout. The GI50 in the assay on U-251, in the assay with UACC-257, with OVCAR-4, in the assay on NCI/ADR-RES, in the assay with ACHN and with HCC 2998 was > 100 µM (inactive) in each case. For the same compound, the GI50 in the assay with CCRF-CEM, in the assay with Hs-578T, with SR, in the assay with MDA-MB-435, with NCI-H522 and in the assay on BT-549 was > 100 µM (inactive) throughout.
Turning to `CCOC(=O)c1nc2cc(F)c(F)cc2nc1NCc1cc(OC)c(OC)c(OC)c1`, the GI50 in the assay with HT-29 was > 100 µM (inactive); in the assay with HOP-62 it was 38.5 µM (inactive); in the assay with RXF 393, 30.1 µM (inactive); in the assay with SK-MEL-2 it was > 100 µM (inactive); in the assay with NCI-H23, > 100 µM (inactive); with Malme-3M it was > 100 µM (inactive). Moreover, the GI50 was 35.9 µM (inactive) in the assay with U-251; > 100 µM (inactive) in the assay on UACC-257; > 100 µM (inactive) in the assay on OVCAR-4; > 100 µM (inactive) with NCI/ADR-RES; > 100 µM (inactive) in the assay with ACHN; > 100 µM (inactive) in the assay with CCRF-CEM. Also, the GI50 was 50.7 µM (inactive) with Hs-578T; > 100 µM (inactive) in the assay on SR; > 100 µM (inactive) with MDA-MB-435; > 100 µM (inactive) with NCI-H522; > 100 µM (inactive) with BT-549; 50.7 µM (inactive) with HOP-92.
As to `O=c1nc(N2CCCCC2)sc2[nH]c3ccccc3c12`, the GI50 was 62.4 µM (inactive) with HT-29; 36.2 µM (inactive) in the assay on HOP-62; > 100 µM (inactive) with SK-MEL-2; 12.2 µM (inactive) in the assay with NCI-H23; 68.4 µM (inactive) with Malme-3M; 96.4 µM (inactive) with U-251. Further, the GI50 in the assay with UACC-257 is > 100 µM (inactive); in the assay on OVCAR-4, > 100 µM (inactive); with NCI/ADR-RES it was 12.6 µM (inactive); in the assay with ACHN, > 100 µM (inactive); with Hs-578T, > 100 µM (inactive); in the assay with SR, > 100 µM (inactive). The GI50 in the assay with MDA-MB-435 was > 100 µM (inactive); in the assay with NCI-H522, > 100 µM (inactive); in the assay on BT-549, > 100 µM (inactive); in the assay on HOP-92, 55.3 µM (inactive).
In the case of `COc1ccc2c(c1)CCN1CCCc3ccc(OC)cc3C21` (stereo not drawn), the GI50 with HT-29 was 31.7 µM (inactive); in the assay on HOP-62 it was 67.9 µM (inactive); with RXF 393, 41.4 µM (inactive); in the assay on SK-MEL-2, 52.1 µM (inactive); with NCI-H23 it was 68.5 µM (inactive); in the assay with U-251 it was 58.9 µM (inactive). In addition, the GI50 in the assay with UACC-257 was 73.8 µM (inactive); in the assay on OVCAR-4 it was > 100 µM (inactive); in the assay on NCI/ADR-RES, 42.9 µM (inactive); in the assay with ACHN, > 100 µM (inactive); in the assay on HCC 2998, 37.9 µM (inactive); in the assay on CCRF-CEM, 42.6 µM (inactive). Moreover, the GI50 in the assay with Hs-578T was 48.1 µM (inactive); with SR, 41.5 µM (inactive); with MDA-MB-435 it was 36.4 µM (inactive); in the assay on NCI-H522, 32.3 µM (inactive); with BT-549, 34 µM (inactive); in the assay on HOP-92, 63.8 µM (inactive).
With `Cc1nc2c(-c3ccccc3)[nH]c(C)c2c(=O)o1`, the GI50 with HT-29 is 39.4 µM (inactive); in the assay with HOP-62, 33.3 µM (inactive); in the assay on RXF 393 it was 35.9 µM (inactive); with SK-MEL-2, 46.7 µM (inactive); in the assay with NCI-H23 it was 57.7 µM (inactive); in the assay on U-251 it was 34.9 µM (inactive). Moreover, the GI50 with UACC-257 was > 100 µM (inactive); with OVCAR-4, 70.1 µM (inactive); in the assay on NCI/ADR-RES it was > 100 µM (inactive); in the assay on ACHN it was 43.8 µM (inactive); with HCC 2998, 57.5 µM (inactive); in the assay with CCRF-CEM, > 100 µM (inactive). For the same compound, the GI50 in the assay with Hs-578T is > 100 µM (inactive); in the assay on SR, > 100 µM (inactive); in the assay on MDA-MB-435 it was 46.2 µM (inactive); in the assay on NCI-H522, 19.7 µM (inactive); in the assay on BT-549, 24.8 µM (inactive); in the assay on HOP-92, > 100 µM (inactive).
With `COc1cc2c(cc1OCCCOc1cc3c(cc1OC)C(=O)N1CCC[C@H]1CN3)N=C[C@@H]1CCCN1C2=O`, the GI50 with HT-29 is 0.244 µM (active); with HOP-62 it was 0.0317 µM (active); in the assay with RXF 393, 0.0497 µM (active); in the assay with SK-MEL-2, 0.0977 µM (active); in the assay on NCI-H23 it was 0.158 µM (active); in the assay on Malme-3M, 0.115 µM (active). The GI50 in the assay on U-251 is 0.0189 µM (active); in the assay with UACC-257 it was 0.206 µM (active); in the assay with OVCAR-4, 0.67 µM (active); in the assay on NCI/ADR-RES it was 3.11 µM (inactive); in the assay on ACHN, 0.0986 µM (active); with CCRF-CEM, < 0.01 µM (active). Besides, the GI50 in the assay with Hs-578T was 0.267 µM (active); with SR it was < 0.01 µM (active); in the assay with MDA-MB-435, 0.117 µM (active); with NCI-H522, < 0.0127 µM (active); in the assay on BT-549, 0.0802 µM (active); in the assay on HOP-92, 0.145 µM (active).
As for `NS(=O)(=O)c1nc(S(=O)(=O)O)c2[nH]cnc2n1`, the GI50 in the assay with HT-29, in the assay with HOP-62, in the assay with RXF 393, in the assay with SK-MEL-2, with NCI-H23 and with Malme-3M was > 100 µM (inactive) in each case. The GI50 with U-251, in the assay on UACC-257, in the assay with OVCAR-4, with NCI/ADR-RES, in the assay on ACHN and in the assay on Hs-578T was > 100 µM (inactive) in each case. The GI50 in the assay on SR, in the assay with MDA-MB-435, with NCI-H522, with BT-549 and with HOP-92 was > 100 µM (inactive) throughout.
For the compound `CCCC[S+]([O-])CCC(N)P(=O)(O)O` (stereo not drawn), the GI50 with HT-29, in the assay on HOP-62, in the assay with SK-MEL-2, with NCI-H23, in the assay with Malme-3M and with U-251 was > 100 µM (inactive) throughout. Besides, the GI50 in the assay with UACC-257, in the assay with OVCAR-4, with NCI/ADR-RES, with ACHN, in the assay with CCRF-CEM and with Hs-578T was > 100 µM (inactive) each time. Also, the GI50 in the assay with SR, with MDA-MB-435, with NCI-H522, in the assay with BT-549 and in the assay on HOP-92 was > 100 µM (inactive) each time.
On to `Cc1cc(OCC(=O)N/N=C/C(Br)=C/c2ccccc2)nc(SCC(=O)N/N=C/C(Br)=C/c2ccccc2)n1`, for which the GI50 with HT-29 was > 100 µM (inactive); in the assay with HOP-62 it was 51.5 µM (inactive); in the assay with RXF 393, 49.1 µM (inactive); in the assay on NCI-H23 it was > 100 µM (inactive); in the assay with U-251 it was > 100 µM (inactive); in the assay with UACC-257 it was > 100 µM (inactive). Besides, the GI50 is 42 µM (inactive) with OVCAR-4; 53.6 µM (inactive) in the assay on NCI/ADR-RES; > 100 µM (inactive) in the assay with ACHN; 23 µM (inactive) in the assay on HCC 2998; > 100 µM (inactive) in the assay with CCRF-CEM; 39.9 µM (inactive) in the assay with Hs-578T. In addition, the GI50 in the assay on SR is > 100 µM (inactive); with MDA-MB-435, > 100 µM (inactive); in the assay on NCI-H522, 26.6 µM (inactive); with BT-549, > 100 µM (inactive); with HOP-92, 24.9 µM (inactive).
In the case of `COc1ccc(/C=C2\C(=O)N(C3OC(COC(C)=O)C(OC(C)=O)C(OC(C)=O)C3OC(C)=O)c3ccccc3N=C2N)cc1` (stereo not drawn), the GI50 in the assay on HT-29 is 18.8 µM (inactive); with HOP-62 it was 28.9 µM (inactive); with RXF 393, 21.8 µM (inactive); with SK-MEL-2, 23.1 µM (inactive); in the assay on NCI-H23, 20 µM (inactive); in the assay with Malme-3M it was 27.4 µM (inactive). In addition, the GI50 with U-251 is 27.1 µM (inactive); in the assay on UACC-257, 24.5 µM (inactive); in the assay on OVCAR-4 it was 33.5 µM (inactive); with NCI/ADR-RES, 20.5 µM (inactive); in the assay with ACHN, 38.5 µM (inactive); in the assay with HCC 2998, 21.8 µM (inactive). In addition, the GI50 was 16.8 µM (inactive) in the assay with CCRF-CEM; 34.6 µM (inactive) with Hs-578T; 5.37 µM (inactive) in the assay with SR; 4.65 µM (inactive) with MDA-MB-435; 23.9 µM (inactive) in the assay with BT-549; 71.4 µM (inactive) in the assay on HOP-92.
